Where a SMILES comes first, the peptide text is derived from it.
How the values were obtained:
Pgk1 = biological target: T1, Pgk1 (Saccharomyces cerevisiae, UniProt P00560); assay: microscale thermophoresis
T1 sequence (P00560 2-416): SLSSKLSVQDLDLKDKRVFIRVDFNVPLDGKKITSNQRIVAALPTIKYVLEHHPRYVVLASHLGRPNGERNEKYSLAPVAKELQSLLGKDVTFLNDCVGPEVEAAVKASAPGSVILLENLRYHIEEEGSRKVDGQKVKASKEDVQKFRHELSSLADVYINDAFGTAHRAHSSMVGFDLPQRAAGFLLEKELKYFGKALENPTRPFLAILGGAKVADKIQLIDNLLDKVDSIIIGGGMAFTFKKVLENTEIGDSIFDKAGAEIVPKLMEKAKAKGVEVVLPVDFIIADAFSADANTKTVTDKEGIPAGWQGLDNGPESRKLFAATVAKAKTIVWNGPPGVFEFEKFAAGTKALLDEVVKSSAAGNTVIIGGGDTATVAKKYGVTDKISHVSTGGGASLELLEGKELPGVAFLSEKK

Pnp1 = biological target: T2, Pnp1 (Saccharomyces cerevisiae, UniProt Q05788); assay: LC-MS assay of inosine conversion to hypoxanthine; format: biochemical
T2 construct: recombinant, overexpressed in yeast ORF collection strain (Dharmacon), purified; monomeric mass 33 kDa
T2 sequence (Q05788 2-311): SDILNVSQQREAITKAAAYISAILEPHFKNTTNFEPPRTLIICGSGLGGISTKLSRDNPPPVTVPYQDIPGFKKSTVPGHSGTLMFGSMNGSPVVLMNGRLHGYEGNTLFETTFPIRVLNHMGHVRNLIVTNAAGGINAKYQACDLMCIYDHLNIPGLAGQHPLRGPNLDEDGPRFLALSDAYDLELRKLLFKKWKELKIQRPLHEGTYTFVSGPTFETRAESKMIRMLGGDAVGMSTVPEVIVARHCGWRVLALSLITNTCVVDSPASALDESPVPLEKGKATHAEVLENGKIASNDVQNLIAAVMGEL

Row | Kd (Pgk1) [µM] | inhibition at 100 µM (Pnp1) [%] | Compound
1 | 122 |  | Nc1ncnc2c1ncn2[C@@H]1O[C@H](COP(=O)(O)OP(=O)(O)OP(=O)(O)O)[C@@H](O)[C@H]1O [ATP]
2 | 416 |  | CC(C)C[C@H](NC(=O)[C@@H](N)CO)C(=O)O [Ser-Leu] (H-Ser-Leu-OH)
3 |  | < 32 | O=c1[nH]c(=O)c2[nH]cnc2[nH]1 [xanthine]

From PMC7876005 (Communications Biology, 2021)
